19 compounds from patent EP4417607A1, “HETEROCYCLIC COMPOUND AS SOS1 INHIBITOR AND USES THEREOF” (Nanjing Zaiming Pharmaceutical Co., Ltd., priority 2021, dated 2023) can be followed below.

By IC50 is commonly meant the midpoint of a concentration-inhibition curve.

Assay [1] relates to p-ERK pathway in H358 cells. In words: p-ERK pathway inhibition in H358 cells (Advanced phospho-ERK (Thr202/Tyr204) cellular kit, HTRF). In kind it is cell-based. As to conditions: Homo sapiens, NCI-H358, 1 h compound incubation. The method, then:
The effect of the compounds of the present invention on H358 cell p-ERK pathway was assessed by Advanced phospho-ERK (Thr202/Tyr204) cellular kit method.
The experimental procedures were summarized as follows: H358 cells (ATCC, CRL-5807) were cultured in RPMI1640 (ThermoFisher, A1049101) complete medium containing 10% FBS (Gibco, 10100147) and 100 U/mL penicillin-streptomycin mixed solution (Gibco, 15140163). When the coverage of the cells in the culture vessel reached 80-90%, the cells were pipetted and seeded in a 96-well plate (Corning, 3599) at 50000 cells/well (90 µL RPMI1640 complete medium), and the plate was left to stand for 5 min, cultured in an incubator at 37 °C with 5% CO2 for 6 h, replaced with a serum-free RPMI1640, and starved overnight.
After incubation overnight, 10 µL of a diluted test compound was added to each well using a multi-channel pipette, and the 96-well plate was cultured in an incubator at 37 °C with 5% CO2 for 1 h. The supernatant was poured. The cells were washed once with PBS. 50 µL of a lysis buffer (Advanced phospho-ERK (Thr202/Tyr204) cellular kit, 64AERPEH) was added to each well. The plate was shaken at room temperature at 450 rpm for 1 h. After the cells were completely lysed, 16 µL of the supernatant was added to a 384-well plate (PE, 6007299), mixed energy donor Eu and energy acceptor D2 (D2/Eu = 1:1) were added, and the plate was incubated at room temperature for 4 h. HTRF on the microplate reader was selected for plate reading, Ratio = Signal 665 nm/Signal 620 nm × 10^4. In this experiment, the cell-free group (replaced with 1640 medium) was used as the 100% inhibition group, and the compound-free group in which the cell was added was used as the 0% inhibition group.
The inhibition percentage of H358 cell p-ERK pathway by the compounds of the present invention could be calculated by the following formula: [formula]
(§1) IC50 values of the compounds were calculated from 8 concentration points using XLfit (ID Business Solutions Ltd., UK) software by the following formula: Y = Bottom + (Top−Bottom)/(1+10^(∧)((logIC50−X)×slopefactor)) [formula]
Y is the inhibition percentage, X is the logarithmic value of the concentration of the test compound, Bottom is the minimum inhibition percentage, Top is the maximum inhibition percentage, and slope factor is the slope coefficient of the curve. The default fitted curve was used to fit the slope of the S-shaped curve to determine the IC50 value. Table 2. Results of p-ERK inhibition test by the compounds of the present invention
On the technique in general: Time-resolved FRET reads energy transfer from a long-lived donor to a nearby acceptor.

A further assay concerns H358 cells. The assay can be described thus: H358 cell proliferation inhibition (CellTiter-Glo luminescent cell viability assay). In kind it is cell-based. As to conditions: Homo sapiens, NCI-H358, 168 h, 7 days. The method, then:
The effect of the compounds of the present invention on H358 cell proliferation was assessed by CellTiter-Glo luminescent cell viability assay kit method.
H358 cells (ATCC, CRL-5807) were cultured in RPMI1640 (Hyclone, SH30256.01) complete medium containing 10% FBS (Gibco, 10100147) and 100 U/mL penicillin-streptomycin mixed solution (Gibco, 15140163). When the cells grew to 80-90%, the cells were digested, pipetted, and seeded in a 96-well plate (Corning, 4515) at 3000 cells/well (180 µL RPMI1640 complete medium), and then the 96-well plate was incubated overnight in an incubator at 37 °C with 5% CO2.
After incubation overnight, 20 µL of a diluted test compound was added to each well using a multi-channel pipette, and the 96-well plate was placed in an incubator at 37 °C with 5% CO2 for further culture. After 7 days, 100 µL of the supernatant was pipetted and discarded. 50 µL of CellTiter-Glo® 3D Cell Viability Assay liquid was added to each well. The plate was shaken at room temperature at 450 rpm for 30 min. After the cells were completely lysed, "Luminescence" on the microplate reader was selected for plate reading. In this experiment, the cell-free group (replaced with 1640 medium) was used as the 100% inhibition group, and the compound-free group in which the cell was added was used as the 0% inhibition group.
The inhibition percentage of H358 cell proliferation by the compounds of the present invention could be calculated by the following formula: [formula]
as §1
Y is the inhibition percentage, X is the logarithmic value of the concentration of the test compound, Bottom is the minimum inhibition percentage, Top is the maximum inhibition percentage, and slope factor is the slope coefficient of the curve.
In general terms: In ATP-based viability assays light output follows the ATP content of the culture.

For the compound `Cc1nc(N[C@H](C)c2cccc(C(F)F)c2F)c2cn(C3(CF)CC3)c(=O)c(N3CCC(C)(O)C3)c2n1` (stereo partly drawn) [Example 62, 4-(((R)-1-(3-(difluoromethyl)-2-fluorophenyl)ethyl)amino)-6-(1-(fluoromethyl)cyclopropyl)-8-(3-hydroxy-3-methylpyrrolidin-1-yl)-2-methylpyrido[4,3-d]pyrimidine-7(6H)-one], the concentration for half-maximal inhibition (IC50) turned out to be 0.133 µM in assay [1] and 0.0716 µM in the assay with H358 cells.
As for `Cc1nc(N[C@H](C)c2cccc(C(F)F)c2F)c2cn(C3(CF)CC3)c(=O)c(N3CCN(CC(F)(F)F)CC3)c2n1` [Example 131, (R)-4-((1-(3-(difluoromethyl)-2-fluorophenyl)ethyl)amino)-6-(1-(fluoromethyl)cyclopropyl)-2-methyl-8-(4-(2,2,2-trifluoroethyl)piperazin-1-yl)pyrido[4,3-d]pyrimidine-7(6H)-one], the figures for the IC50 (in assay [1]; in the assay with H358 cells) were 0.0565 µM and 0.0884 µM, respectively.
Turning to `Cc1nc(N[C@H](C)c2cccc(C(F)F)c2F)c2cn(C3(CF)CC3)c(=O)c(N3CCN(C4(C)COC4)CC3)c2n1` [Example 143], the figures for the IC50 (in assay [1]; with H358 cells) were 0.0348 µM and 0.0158 µM, respectively.
For `Cc1nc(N[C@H](C)c2cccc(C(F)F)c2F)c2cn(C3(CF)CC3)c(=O)c(N3CCOCC3(C)C)c2n1` [Example 52, (R)-4-((1-(3-(difluoromethyl)-2-fluorophenyl)ethyl)amino)-8-(3,3-dimethylmorpholine) -6-(1-(fluoromethyl)cyclopropyl)-2-methylpyrido[4,3-d]pyrimidine-7(6H)-one] the same measures were 0.0414 µM and 0.0265 µM.
On to `Cc1nc(N[C@H](C)c2cccc(C(F)F)c2F)c2cn(C3(CF)CC3)c(=O)c(N3C[C@@H](C)O[C@@H](C)C3)c2n1` [Example 41, 4-(((R)-1-(3-(difluoromethyl)-2-fluorophenyl)ethyl)amino)-8-((2S,6R)-2,6-dimethylmorpholino)-6-(1-(fluoromethyl)cyclopropyl)-2-methylpyrido[4,3-d]pyrimidine-7(6H)-one], for which the figures for the IC50 (in assay [1]; in the assay on H358 cells) were 0.117 µM and 0.052 µM, respectively.
For `Cc1nc(N[C@H](C)c2cccc(C(F)(F)F)c2C)c2cn(N3CCOCC3)c(=O)c(N3CCN(C)CC3)c2n1` [Example 70, (R)-2-methyl-4-((1-(2-methyl-3-(trifluoromethyl)phenyl)ethyl)amino)-8-(4-methylpiperazin-1-yl)-6-morpholinepyrido[4,3-d]pyrimidine-7(6H)-one], in that order: 0.0345 µM and 0.0452 µM.
For `COc1c(=O)n(C2(C)CCN(C(C)=S)C2)cc2c(N[C@H](C)c3cccc(C(F)F)c3F)nc(C)nc12` (some centres unmarked) [Example 19] the same measures were 0.0525 µM and 0.0696 µM.
As to `Cc1nc(N[C@H](C)c2cccc(S(F)(F)(F)(F)F)c2)c2cn(N3CCOCC3)c(=O)c(N3CCN(C)CC3)c2n1` [Example 82, (R)-2-methyl-8-(4-methylpiperazin-1-yl)-6-morpholine-4-((1-(3-(pentafluoro-λ^6-sulfanyl)phenyl)ethyl)amino)pyrido[4,3-d]pyrimidine-7(6H)-one], the half-inhibitory concentration (IC50) turned out to be 0.0746 µM in assay [1] and 0.0304 µM with H358 cells.
For `Cc1nc(N[C@H](C)c2cccc(C#N)c2C)c2cn(C3(CF)CC3)c(=O)c(-c3ccc(C#N)cc3)c2n1` [Example 71, (R)-3-(1-((8-(4-cyanophenyl)-6-(1-(fluoromethyl)cyclopropyl)-2-methyl-7-oxo-6,7-dihydropyrido[4,3-d]pyrimidin-4-yl)amino)ethyl)-2-methylbenzonitrile], in that order: 0.156 µM and 0.114 µM.
For `[2H][C@](C)(Nc1nc(C)nc2c(N3CCC(S(C)(=O)=O)CC3)c(=O)n(C3(CF)CC3)cc12)c1cccc(C(F)F)c1F` [Example 125, (R)-4-((1-(3-(difluoromethyl)-2-fluorophenyl)ethyl-1-d)amino)-6-(1-(fluoromethyl)cyclopropyl)-2-methyl-8-(4-(methylsulfonyl)piperidin-1-yl)pyrido[4,3-d]pyrimidine-7(6H)-one], in that order: 0.0598 µM and 0.0356 µM.
As to `Cc1nc(N[C@H](C)c2cccc(C(F)F)c2F)c2cn(C3(CF)CC3)c(=O)c(OCC3CC3)c2n1` [Example 35, (R)-8-(cyclopropylmethoxy)-4-((1-(3-(difluoromethyl)-2-fluorophenyl)ethyl)amino)-6-(1-(fluoromethyl)cyclopropyl)-2-methylpyrido[4,3-d]pyrimidine-7(6H)-one], the 50% inhibitory concentration (IC50) in the assay with H358 cells is 0.154 µM. This lies in the sub-micromolar range.
Still for that read-out and setting: then `Cc1nc(N[C@H](C)c2cccc(C#N)c2C)c2cn(N3CCOCC3)c(=O)c(-c3ccc(N4CCCC4)nc3)c2n1` [Example 89, (R)-2-methyl-3-(1-((2-methyl-6-morpholinyl-7-oxo-8-(6-(pyrrolidin-1-yl)pyridin-3-yl)-6,7-dihydropyrido[4,3-d]pyrimidin-4-yl)amino)ethyl)benzonitrile], with 0.134 µM; and `Cc1nc(N[C@H](C)c2cccc(C(F)F)c2F)c2cn(C3(CF)CC3)c(=O)c(Oc3cnn(C)c3)c2n1` [Example 60, (R)-4-((1-(3-(difluoromethyl)-2-fluorophenyl)ethyl)amino)-6-(1-(fluoromethyl)cyclopropyl)-2-methyl-8-((1-methyl-1H-pyrazol-4-yl)oxy)pyrido[4,3-d)pyrimidine-7(6H)-one], with 0.162 µM; and `Cc1nc(N[C@H](C)c2cccc(C#N)c2C)c2cn(C3(CF)CC3)c(=O)c(N3CCN(C)CC3)c2n1` [Example 74, (R)-3-(1-((6-(1-(fluoromethyl)cyclopropyl)-2-methyl-8-(4-methylpiperazin-1-yl)-7-oxo-6,7-dihydropyrido[4,3-d]pyrimidin-4-yl)amino)ethyl)-2-methylbenzonitrile], with 0.0847 µM.
On the same count and under the same terms, then `COc1c(=O)n(C2(C)CCN(C(C)=O)C2)cc2c(N[C@H](C)c3cccc(C(F)F)c3F)nc(C)nc12` (stereo partly drawn) [Example 7, 6-(1-acetyl-3-methylpyrrolidin-3-yl)-4-(((R)-1-(3-(difluoromethyl)-2-fluorophenyl)ethyl)amino)-8-methoxy-2-methylpyrido[4,3-d]pyrimidine-7(6H)-one], with 0.0747 µM; and `COc1c(=O)n(C2(CF)CC2)cc2c(N[C@H](C)c3cccc(C#N)c3C)nc(C)nc12` [Example 3, (R)-3-(1-((6-(1-(fluoromethyl)cyclopropyl)-8-methoxy-2-methyl-7-oxo-6,7-dihydropyrido[4,3-d]pyrimidin-4-yl)amino)ethyl)-2-methylbenzonitrile], with 0.0614 µM; and `Cc1nc(N[C@H](C)c2cccc(C(F)F)c2F)c2cn(C3(CF)CC3)c(=O)c(N3CCC4(COC4)C3)c2n1` [Example 154], with 0.117 µM.
`Cc1nc(N[C@H](C)c2cccc(C(F)F)c2F)c2cn(C3(CF)CC3)c(=O)c(NC(=O)c3ccccn3)c2n1` [Example 157] gave an IC50 with H358 cells of 0.0848 µM.
The same measure, in the same setting: then `Cc1nc(N[C@H](C)c2cccc(C(F)F)c2F)c2cn(C3(CF)CC3)c(=O)c(N3CCN(C4COC4)CC34CC4)c2n1` [Example 146, (R)-4-((1-(3-(difluoromethyl)-2-fluorophenyl)ethyl)amino)-6-(1-(fluoromethyl)cyclopropyl)-2-methyl-8-(7-(oxetan-3-yl)-4,7-diazaspiro [2.5]octan-4-yl)pyrido [4,3-d]pyrimidine-7(6H)-one], with 0.0699 µM.
